The experiment relates to influenza virus. Type of experiment: cell-based.

Turning to Heparin, the “viral activity after 1/100 dilution (virucidal activity)” value is “recovery in viral activity”.

(Values after US20240197634A1, “PHARMACEUTICAL COMPOSITION FOR PREVENTING OR TREATING VIRUS INFECTIONS, COMPRISING POLYMER NANODISCS” (priority 2021, published 2024).)
